# Activity calls are given as the source filed them. The rule behind the calls is not given here.
# Assays:
# [1] = biological target: Inhibitor of nuclear factor kappa-B kinase subunit beta (Homo sapiens, UniProt O14920); test: Inhibition of recombinant IKK-2 (unknown origin) using peptide as substrate
# [2] = biological target: MAP kinase-activated protein kinase 2 (Homo sapiens, UniProt P49137); test: Inhibition of recombinant MK2 (unknown origin) using peptide as substrate
# [3] = biological target: RAF proto-oncogene serine/threonine-protein kinase (Homo sapiens, UniProt P04049); test: Inhibition of recombinant c-Raf (unknown origin) using protein as substrate
# Sequence of RAF proto-oncogene serine/threonine-protein kinase (P04049 whole entry): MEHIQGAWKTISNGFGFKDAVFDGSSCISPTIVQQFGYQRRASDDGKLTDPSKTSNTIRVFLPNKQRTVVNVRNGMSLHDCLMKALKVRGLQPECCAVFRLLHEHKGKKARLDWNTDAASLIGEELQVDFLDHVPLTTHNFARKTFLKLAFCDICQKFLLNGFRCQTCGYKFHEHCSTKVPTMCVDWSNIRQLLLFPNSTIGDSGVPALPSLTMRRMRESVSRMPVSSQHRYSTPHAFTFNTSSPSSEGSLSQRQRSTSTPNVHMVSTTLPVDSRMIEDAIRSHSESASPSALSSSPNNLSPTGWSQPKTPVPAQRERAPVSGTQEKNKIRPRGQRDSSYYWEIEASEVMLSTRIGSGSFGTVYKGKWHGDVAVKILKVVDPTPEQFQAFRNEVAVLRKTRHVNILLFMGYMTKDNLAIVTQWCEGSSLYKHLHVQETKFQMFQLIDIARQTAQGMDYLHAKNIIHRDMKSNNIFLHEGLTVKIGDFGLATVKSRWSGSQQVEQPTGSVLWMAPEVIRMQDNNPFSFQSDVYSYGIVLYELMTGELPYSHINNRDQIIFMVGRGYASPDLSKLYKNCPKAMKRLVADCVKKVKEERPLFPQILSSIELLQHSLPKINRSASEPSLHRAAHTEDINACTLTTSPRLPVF
# [4] = biological target: Mitogen-activated protein kinase kinase kinase 8 (Homo sapiens, UniProt P41279); test: Inhibition of recombinant Tpl-2 (unknown origin) using peptide as substrate
# Sequence of Mitogen-activated protein kinase kinase kinase 8 (P41279 whole entry, the tested form may be a part): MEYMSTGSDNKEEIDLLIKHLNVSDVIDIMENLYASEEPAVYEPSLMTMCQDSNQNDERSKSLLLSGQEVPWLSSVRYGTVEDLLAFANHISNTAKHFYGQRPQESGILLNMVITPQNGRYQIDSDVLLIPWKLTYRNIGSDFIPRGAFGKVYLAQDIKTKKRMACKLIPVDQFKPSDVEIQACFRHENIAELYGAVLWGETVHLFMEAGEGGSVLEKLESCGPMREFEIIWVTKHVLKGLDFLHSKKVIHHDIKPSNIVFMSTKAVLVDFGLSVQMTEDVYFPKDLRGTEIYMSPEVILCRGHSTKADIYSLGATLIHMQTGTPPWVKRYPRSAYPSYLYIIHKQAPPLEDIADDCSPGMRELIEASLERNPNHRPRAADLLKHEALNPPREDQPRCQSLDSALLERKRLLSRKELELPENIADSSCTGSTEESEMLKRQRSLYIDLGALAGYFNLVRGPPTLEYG
# [5] = organism: Homo sapiens; test: Selectivity ratio of IC50 for recombinant Src (unknown origin) to IC50 for recombinant N-terminal His6-tagged HER2 cytoplasmic domain (676 to 1255 residues)(unknown origin) expressed in baculovirus infected Sf9 insect cells
# [6] = test system: NIH3T3; test: Antiproliferative activity against mouse 3T3 cells transfected with HER-2 oncogene measured after 2 days by sulforhodamine B assay; assay type: functional, cell-based; details: NIH3T3, 48 h
# [7] = test system: SW-620; test: Antiproliferative activity against human SW620 cells measured after 2 days by sulforhodamine B assay; assay type: functional, cell-based; details: SW-620, 48 h
# [8] = biological target: T1, Receptor tyrosine-protein kinase erbB-2 (Homo sapiens, UniProt P04626); test: Inhibition of HER2 autophosphorylation in human BT-474 cells at 1 uM measured after 3 hrs by Western blot analysis relative to control; assay type: cell-based
# T1 sequence (P04626 whole entry): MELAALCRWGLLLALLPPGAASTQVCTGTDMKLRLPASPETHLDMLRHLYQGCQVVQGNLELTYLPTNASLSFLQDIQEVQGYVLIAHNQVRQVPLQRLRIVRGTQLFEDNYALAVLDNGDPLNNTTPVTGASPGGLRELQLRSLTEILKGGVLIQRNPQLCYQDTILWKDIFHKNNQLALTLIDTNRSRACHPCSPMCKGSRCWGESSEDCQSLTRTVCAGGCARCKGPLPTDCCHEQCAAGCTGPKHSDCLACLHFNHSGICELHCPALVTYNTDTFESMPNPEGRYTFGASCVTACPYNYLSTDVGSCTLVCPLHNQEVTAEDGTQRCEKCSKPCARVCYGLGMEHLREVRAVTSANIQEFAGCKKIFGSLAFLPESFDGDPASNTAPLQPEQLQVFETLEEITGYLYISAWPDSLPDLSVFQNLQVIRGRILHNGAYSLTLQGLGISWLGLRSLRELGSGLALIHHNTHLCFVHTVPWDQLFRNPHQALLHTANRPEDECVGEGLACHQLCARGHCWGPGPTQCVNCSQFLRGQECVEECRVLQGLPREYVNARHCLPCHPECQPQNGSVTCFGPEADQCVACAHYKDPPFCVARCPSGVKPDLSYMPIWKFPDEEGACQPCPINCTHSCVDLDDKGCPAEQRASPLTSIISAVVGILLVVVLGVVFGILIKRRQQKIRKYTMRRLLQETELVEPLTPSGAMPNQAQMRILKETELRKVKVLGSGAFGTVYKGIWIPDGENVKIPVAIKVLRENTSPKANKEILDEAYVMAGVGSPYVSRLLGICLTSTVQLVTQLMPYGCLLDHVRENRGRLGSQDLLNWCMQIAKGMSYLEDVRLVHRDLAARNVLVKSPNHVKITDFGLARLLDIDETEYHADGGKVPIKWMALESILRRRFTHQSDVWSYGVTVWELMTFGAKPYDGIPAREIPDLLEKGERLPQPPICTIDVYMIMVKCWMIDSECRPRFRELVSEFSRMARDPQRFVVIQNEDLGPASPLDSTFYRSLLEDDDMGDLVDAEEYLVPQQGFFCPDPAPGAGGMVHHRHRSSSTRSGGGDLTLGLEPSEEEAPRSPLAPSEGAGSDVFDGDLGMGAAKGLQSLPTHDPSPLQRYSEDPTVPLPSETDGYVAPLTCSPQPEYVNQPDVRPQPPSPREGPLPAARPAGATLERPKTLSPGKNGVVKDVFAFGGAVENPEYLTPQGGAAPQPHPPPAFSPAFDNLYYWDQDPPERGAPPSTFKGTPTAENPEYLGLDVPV
# [9] = biological target: Epidermal growth factor receptor (Homo sapiens, UniProt P00533); test: Inhibition of EGF-induced EGFR phosphorylation in human A-431 cells at 1 uM incubated for 3 hrs by Western blot analysis relative to control; assay type: cell-based
# Sequence of Epidermal growth factor receptor (P00533 whole entry): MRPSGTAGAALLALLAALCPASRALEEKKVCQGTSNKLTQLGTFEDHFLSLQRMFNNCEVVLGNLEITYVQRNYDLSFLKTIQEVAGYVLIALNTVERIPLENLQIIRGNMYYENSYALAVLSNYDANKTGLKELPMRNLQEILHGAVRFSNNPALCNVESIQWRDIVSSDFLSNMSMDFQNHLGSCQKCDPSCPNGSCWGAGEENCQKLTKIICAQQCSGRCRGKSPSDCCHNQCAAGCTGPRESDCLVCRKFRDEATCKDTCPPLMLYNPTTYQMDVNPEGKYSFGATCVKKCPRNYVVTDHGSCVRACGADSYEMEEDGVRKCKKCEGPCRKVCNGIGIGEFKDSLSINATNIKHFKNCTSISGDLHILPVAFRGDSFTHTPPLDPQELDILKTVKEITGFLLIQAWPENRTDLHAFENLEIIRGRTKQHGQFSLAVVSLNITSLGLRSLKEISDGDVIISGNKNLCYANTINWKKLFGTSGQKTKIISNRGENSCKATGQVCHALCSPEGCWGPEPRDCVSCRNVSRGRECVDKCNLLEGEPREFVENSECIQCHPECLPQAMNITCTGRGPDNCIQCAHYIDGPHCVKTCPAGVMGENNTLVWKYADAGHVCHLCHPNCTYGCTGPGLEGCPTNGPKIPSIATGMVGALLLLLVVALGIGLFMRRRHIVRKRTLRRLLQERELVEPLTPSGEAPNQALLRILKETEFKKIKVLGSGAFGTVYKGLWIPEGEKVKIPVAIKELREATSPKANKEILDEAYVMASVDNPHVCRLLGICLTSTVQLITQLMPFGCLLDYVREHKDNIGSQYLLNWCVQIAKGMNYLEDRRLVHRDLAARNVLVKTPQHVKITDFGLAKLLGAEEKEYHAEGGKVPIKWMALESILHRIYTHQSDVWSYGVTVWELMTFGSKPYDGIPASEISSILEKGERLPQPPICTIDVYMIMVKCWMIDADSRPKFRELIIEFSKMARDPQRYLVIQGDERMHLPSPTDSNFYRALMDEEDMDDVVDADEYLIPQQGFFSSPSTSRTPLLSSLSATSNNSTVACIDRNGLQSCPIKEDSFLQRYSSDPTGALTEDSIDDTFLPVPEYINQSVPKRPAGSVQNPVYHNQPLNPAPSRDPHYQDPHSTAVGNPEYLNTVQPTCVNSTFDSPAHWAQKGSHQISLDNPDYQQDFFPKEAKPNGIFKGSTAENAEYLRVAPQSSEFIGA
# [10] = biological target: T1, Receptor tyrosine-protein kinase erbB-2; test: Inhibition of [14C]HKI-272 binding to HER2 in human BT-474 cells at 5 uM measured after 15 mins by fluorography; assay type: cell-based
# [11] = test system: BT-474; test: Cell cycle arrest in human BT-474 cells assessed as up regulation of p27 expression at 1 to 10 nM incubated for 12 to 16 hrs by Western blot analysis; assay type: functional, cell-based; details: dose 1-10 nM, time 12-16 hrs
# [12] = test system: BT-474; test: Cell cycle arrest in human BT-474 cells assessed as accumulation of cells at Sub-G1 phase at 1 nM measured after 12 to 16 hrs by propidium iodide staining based flow cytometry (reference value: 8%); assay type: functional; details: time 12-16 hrs
# [13] = test system: BT-474; test: Cell cycle arrest in human BT-474 cells assessed as accumulation of cells at G0-G1 phase at 0.2 nM measured after 12 to 16 hrs by propidium iodide staining based flow cytometry (reference value: 61%); assay type: functional; details: time 12-16 hrs
# [14] = test system: BT-474; test: Cell cycle arrest in human BT-474 cells assessed as accumulation of cells at G0-G1 phase at 0.4 nM measured after 12 to 16 hrs by propidium iodide staining based flow cytometry (reference value: 61%); assay type: functional; details: time 12-16 hrs
# [15] = test system: BT-474; test: Cell cycle arrest in human BT-474 cells assessed as accumulation of cells at G0-G1 phase at 2 nM measured after 12 to 16 hrs by propidium iodide staining based flow cytometry (reference value: 61%); assay type: functional; details: time 12-16 hrs
# [16] = test system: BT-474; test: Cell cycle arrest in human BT-474 cells assessed as accumulation of cells at S phase at 0.4 nM measured after 12 to 16 hrs by propidium iodide staining based flow cytometry (reference value: 21%); assay type: functional; details: time 12-16 hrs
# [17] = test system: BT-474; test: Cell cycle arrest in human BT-474 cells assessed as accumulation of cells at S phase at 1 nM measured after 12 to 16 hrs by propidium iodide staining based flow cytometry (reference value: 21%); assay type: functional; details: time 12-16 hrs
# [18] = test system: BT-474; test: Cell cycle arrest in human BT-474 cells assessed as accumulation of cells at S phase at 1 nM measured after 12 to 16 hrs by BrdUrd uptake assay (reference value: 26%); assay type: functional; details: time 12-16 hrs
# [19] = test system: BT-474; test: Cell cycle arrest in human BT-474 cells assessed as accumulation of cells at G2/M phase at 0.2 nM measured after 12 to 16 hrs by propidium iodide staining based flow cytometry (reference value: 11%); assay type: functional; details: time 12-16 hrs
# [20] = test system: BT-474; test: Cell cycle arrest in human BT-474 cells assessed as accumulation of cells at G2/M phase at 1 nM measured after 12 to 16 hrs by propidium iodide staining based flow cytometry (reference value: 11%); assay type: functional; details: time 12-16 hrs
# [21] = test system: NIH3T3; test: Antitumor activity against mouse 3T3 cells transfected with HER-2 oncogene implanted in athymic nude mouse assessed as tumor growth inhibition at 80 mg/kg, po administered daily for 10 days via gavage and measured on day 21 relative to control; assay type: functional; details: NIH3T3, 504 h, time 21 day, read-out: TGI
# [22] = test system: NIH3T3; test: Antitumor activity against mouse 3T3 cells transfected with HER-2 oncogene implanted in athymic nude mouse assessed as tumor growth inhibition at 10 mg/kg, po administered daily for 10 days via gavage and measured on day 14 relative to control; assay type: functional; details: NIH3T3, 336 h, time 14 day, read-out: TGI
# [23] = test system: NIH3T3; test: Antitumor activity against mouse 3T3 cells transfected with HER-2 oncogene implanted in athymic nude mouse assessed as tumor growth inhibition at 40 mg/kg, po administered daily for 10 days via gavage and measured on day 14 relative to control; assay type: functional; details: NIH3T3, 336 h, time 14 day, read-out: TGI
# [24] = test system: BT-474; test: Antitumor activity against human BT-474 cells xenografted in athymic nude mouse assessed as tumor growth inhibition at 40 mg/kg, po administered daily for 20 days via gavage and measured on day 28 relative to control; assay type: functional; details: BT-474, 672 h, time 28 day, read-out: TGI
# [25] = In vivo inhibition of HER2 autophosphorylation in human BT-474 cells xenografted athymic nude mouse at 40 mg/kg, po administered as single dose via gavage measured after 1 hr by immunoblot analysis relative to control; assay type: functional
# [26] = In vivo inhibition of HER2 autophosphorylation in human BT-474 cells xenografted athymic nude mouse at 40 mg/kg, po administered as single dose via gavage measured after 24 hrs by immunoblot analysis relative to control; assay type: functional
# [27] = test system: SK-OV-3; test: Antitumor activity against human SK-OV-3 cells xenografted in athymic nude mouse assessed as tumor growth inhibition at 60 mg/kg, po administered daily for 20 days via gavage and measured on day 21 relative to control; assay type: functional; details: SK-OV-3, 504 h, time 21 day, read-out: TGI
# [28] = test system: A-431; test: Antitumor activity against human A-431 cells xenografted in athymic nude mouse assessed as tumor growth inhibition at 60 mg/kg, po administered daily for 10 days via gavage and measured on day 15 relative to control; assay type: functional; details: A-431, 360 h, time 15 day, read-out: TGI
# [29] = test system: MCF7; test: Antitumor activity against human MCF7 cells xenografted in athymic nude mouse assessed as tumor growth inhibition up to 80 mg/kg, po administered daily for 20 days via gavage and measured on day 28 relative to control; assay type: functional; details: time 28 day
# [30] = test system: MDA-MB-361; test: Antiproliferative activity against human MDA-MB-361 cells measured after 2 days by sulforhodamine B assay; assay type: functional, cell-based; details: MDA-MB-361, 48 h
# [31] = Terminal half life in nude mouse at 20 mg/kg, po administered as single dose; assay type: ADME, organism-based; details: in vivo, read-out: beta t1/2 (converted)
# [32] = Toxicity in human SK-OV-3 cells xenografted athymic nude mouse at 10 to 60 mg/kg, po administered daily via gavage for 20 days; assay type: organism-based; details: in vivo, 480 h, dose 10-60 mg/kg, time 20 day
# Sequence of Inhibitor of nuclear factor kappa-B kinase subunit beta (O14920 whole entry): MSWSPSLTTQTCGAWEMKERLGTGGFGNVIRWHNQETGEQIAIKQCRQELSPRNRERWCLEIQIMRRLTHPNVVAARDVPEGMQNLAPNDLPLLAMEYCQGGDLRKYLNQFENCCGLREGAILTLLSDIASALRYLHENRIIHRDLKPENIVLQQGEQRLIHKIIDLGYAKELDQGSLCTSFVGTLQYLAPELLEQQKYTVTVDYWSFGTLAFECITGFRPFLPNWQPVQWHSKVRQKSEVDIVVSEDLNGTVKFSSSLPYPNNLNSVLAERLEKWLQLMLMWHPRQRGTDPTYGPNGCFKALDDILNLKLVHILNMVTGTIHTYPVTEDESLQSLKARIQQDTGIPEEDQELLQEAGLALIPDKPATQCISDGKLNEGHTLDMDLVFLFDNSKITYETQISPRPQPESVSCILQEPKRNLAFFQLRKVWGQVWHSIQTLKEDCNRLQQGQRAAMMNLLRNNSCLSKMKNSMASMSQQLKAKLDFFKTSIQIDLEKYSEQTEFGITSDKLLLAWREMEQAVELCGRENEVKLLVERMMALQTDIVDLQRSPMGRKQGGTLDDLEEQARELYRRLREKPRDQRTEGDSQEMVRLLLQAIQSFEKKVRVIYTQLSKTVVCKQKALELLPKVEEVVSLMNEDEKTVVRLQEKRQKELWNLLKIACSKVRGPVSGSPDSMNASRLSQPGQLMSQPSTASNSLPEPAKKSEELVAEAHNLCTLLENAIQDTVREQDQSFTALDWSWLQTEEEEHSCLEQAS
# Sequence of MAP kinase-activated protein kinase 2 (P49137 whole entry): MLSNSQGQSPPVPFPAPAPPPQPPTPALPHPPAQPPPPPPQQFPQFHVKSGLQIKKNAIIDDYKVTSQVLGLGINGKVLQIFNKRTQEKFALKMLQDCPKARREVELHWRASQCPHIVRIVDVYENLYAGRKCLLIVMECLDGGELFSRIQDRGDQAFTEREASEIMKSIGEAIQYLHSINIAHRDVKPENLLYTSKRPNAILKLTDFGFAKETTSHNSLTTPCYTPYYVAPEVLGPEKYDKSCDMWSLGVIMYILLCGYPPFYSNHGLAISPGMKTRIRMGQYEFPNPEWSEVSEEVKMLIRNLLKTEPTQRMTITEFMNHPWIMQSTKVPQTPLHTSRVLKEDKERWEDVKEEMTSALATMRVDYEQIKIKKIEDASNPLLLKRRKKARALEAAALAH
smiles,measurement,setting,value
COc1cc2ncc(C#N)c(Nc3ccc(OCc4ccccn4)c(Cl)c3)c2cc1NC(=O)/C=C/CN(C)C,IC50,[1],> 9 µM
same,IC50,[2],> 45 µM
same,IC50,[3],> 18 µM
same,IC50,[4],> 18 µM
same,Ratio IC50,[5],24
same,IC50,[6],0.003 µM
same,IC50,[7],0.69 µM
same,inhibition,[8],98%
same,inhibition,[9],> 99%
same,inhibition,[10],Active
same,Activity,[11],Active
same,Activity,[12],7%
same,Activity,[13],63%
same,Activity,[14],65%
same,Activity,[15],66%
same,Activity,[16],12%
same,Activity,[17],10%
same,Activity,[18],12%
same,Activity,[19],13%
same,Activity,[20],14%
same,inhibition in vivo at 80 mg/kg,[21],98%
same,inhibition in vivo at 10 mg/kg,[22],34%
same,inhibition in vivo at 40 mg/kg,[23],98%
same,inhibition in vivo at 40 mg/kg,[24],93%
same,inhibition in vivo at 40 mg/kg,[25],84%
same,inhibition in vivo at 40 mg/kg,[26],43%
same,inhibition in vivo at 60 mg/kg,[27],85%
same,inhibition in vivo at 60 mg/kg,[28],76%
same,TGI,[29],28%
same,IC50,[30],0.19 µM
same,half-life,[31],~4 h
same,Activity,[32],Non-Toxic

# From ChEMBL document CHEMBL5661967, “Antitumor activity of HKI-272, an orally active, irreversible inhibitor of the HER-2 tyrosine kinase” (Cancer Res, 2004)
